What all share (assay type): functional
What all share (conditions): read-out: GI

Experiment [1] relates to COLO 205. In words: Growth inhibition of Homo sapiens (human) COLO205 cells at 1 uM by SRB assay. (In general: In SRB staining, fixed cells bind dye roughly in proportion to their protein.)
In experiment [2] the test system is COLO 205. Description: Growth inhibition of Homo sapiens (human) COLO205 cells at 10 uM by SRB assay.
The test system of experiment [3] is COLO 205. Description: Growth inhibition of Homo sapiens (human) COLO205 cells at 100 uM by SRB assay.
For experiment [4], the system named is THP-1. In words: Growth inhibition of Homo sapiens (human) THP1 cells at 100 uM by SRB assay.
Experiment [5] has as its system THP-1. Description: Growth inhibition of Homo sapiens (human) THP1 cells at 10 uM by SRB assay.
Experiment [6] deals with A549. In words: Growth inhibition of Homo sapiens (human) A549 cells at 10 uM by SRB assay.
Experiment [7] has as its system A549. In words: Growth inhibition of Homo sapiens (human) A549 cells at 100 uM by SRB assay.

Structures can show the parent of a compound that is named as a salt.

For `COc1cccc2c1C(=O)c1c(O)c3c(c(O)c1C2=O)C[C@@](O)(C(=O)CO)C[C@@H]3O[C@H]1C[C@H](N)[C@H](O)[C@H](C)O1` [DOXORUBICIN HYDROCHLORIDE], the inhibition of growth at 1 µM with COLO 205 [1] came to 72%.
As to `COc1ccc(C2CC(c3ccc(OCc4cn(Cc5ccc([N+](=O)[O-])cc5)nn4)cc3)=NN2C(C)=O)cc1OC` (stereo not given), the inhibition of growth at 10 µM with COLO 205 [2] is 9%; in the experiment on THP-1 [5], 8%; in the experiment on A549 [6], 11%. The results for the inhibition of growth at 100 µM with COLO 205 [3], with THP-1 [4] and in the experiment on A549 [7] were 38%, 9% and 36%, respectively.
Regarding `COc1cc(C2CC(c3cccc4ccccc34)=NN2C(C)=O)ccc1OCc1cn(Cc2ccc([N+](=O)[O-])cc2)nn1` (stereo not given), the inhibition of growth at 10 µM in the experiment on COLO 205 [2] is 46%; in the experiment on THP-1 [5] it was 10%; in the experiment on A549 [6], 89%. Further, the results for the inhibition of growth at 100 µM in the experiment on COLO 205 [3], in the experiment on THP-1 [4] and in the experiment with A549 [7] were 72%, 79% and 95%, respectively.
Regarding `COc1cc(C2CC(c3ccc(Br)cc3)=NN2C(C)=O)ccc1OCc1cn(Cc2ccc([N+](=O)[O-])cc2)nn1` (stereo not given), the inhibition of growth at 10 µM in the experiment with COLO 205 [2] stood at 26%; in the experiment with THP-1 [5], 1%; with A549 [6], 0%. Moreover, the inhibition of growth at 100 µM in the experiment on COLO 205 [3] was 47%; in the experiment with THP-1 [4], 23%; with A549 [7], 17%.
`CC(=O)N1N=C(c2ccc(OCc3cn(Cc4ccc([N+](=O)[O-])cc4)nn3)cc2)CC1c1ccccc1` (stereo not given): the values for the inhibition of growth at 10 µM in the experiment with COLO 205 [2], in the experiment on THP-1 [5] and with A549 [6] were 18%, 0% and 15%, respectively. For the same compound, the inhibition of growth at 100 µM stood at 55% with COLO 205 [3], 22% in the experiment with THP-1 [4] and 80% in the experiment on A549 [7].
`COc1cc(C2CC(c3ccc([N+](=O)[O-])cc3)=NN2C(C)=O)ccc1OCc1cn(Cc2ccc([N+](=O)[O-])cc2)nn1` (stereo not given): the inhibition of growth at 10 µM in the experiment with COLO 205 [2] worked out at 33%; with THP-1 [5] it was 7%; in the experiment with A549 [6], 39%. Moreover, the inhibition of growth at 100 µM with COLO 205 [3] was 85%; in the experiment on THP-1 [4], 59%; in the experiment on A549 [7], 72%.
In the case of `COc1ccc(C2CC(c3ccc(OCc4cn(Cc5ccc([N+](=O)[O-])cc5)nn4)cc3)=NN2C(C)=O)cc1` (stereo not given), the inhibition of growth at 10 µM in the experiment on COLO 205 [2] was 4%; in the experiment with THP-1 [5], 15%; in the experiment with A549 [6] it was 26%. Also, the inhibition of growth at 100 µM with COLO 205 [3] is 37%; with THP-1 [4], 26%; in the experiment with A549 [7], 33%.
For `COc1ccc(C2=NN(C(C)=O)C(c3ccc(OCc4cn(Cc5ccc([N+](=O)[O-])cc5)nn4)c(OC)c3)C2)cc1` (stereo not given), the inhibition of growth at 10 µM is 10% in the experiment with COLO 205 [2], 8% with THP-1 [5] and 43% in the experiment on A549 [6]. The inhibition of growth at 100 µM in the experiment on COLO 205 [3] came to 75%; in the experiment on THP-1 [4], 14%; with A549 [7], 84%.
Regarding `COc1cc(C2CC(c3cc(OC)c(OC)c(OC)c3)=NN2C(C)=O)ccc1OCc1cn(Cc2ccc([N+](=O)[O-])cc2)nn1` (stereo not given), the inhibition of growth at 10 µM with COLO 205 [2] amounted to 60%; in the experiment on THP-1 [5], 29%; in the experiment on A549 [6], 68%. The inhibition of growth at 100 µM with COLO 205 [3] was determined as 99%; with THP-1 [4] it was 43%; in the experiment on A549 [7], 85%.
For the compound `CC(=O)O[C@H]1C(=O)[C@@]2(C)[C@H]([C@H](OC(=O)c3ccccc3)[C@]3(O)C[C@H](OC(=O)[C@H](O)[C@@H](NC(=O)c4ccccc4)c4ccccc4)C(C)=C1C3(C)C)[C@]1(OC(C)=O)CO[C@@H]1C[C@@H]2O` [PACLITAXEL], the inhibition of growth at 10 µM with THP-1 [5] is 62%; in the experiment with A549 [6], 59%.
On to `COc1cc(C2CC(c3ccccc3)=NN2C(C)=O)ccc1OCc1cn(Cc2ccc([N+](=O)[O-])cc2)nn1` (stereo not given), for which the figures for the inhibition of growth at 10 µM in the experiment with COLO 205 [2], in the experiment on THP-1 [5] and with A549 [6] were 7%, 0% and 0%, respectively. The inhibition of growth at 100 µM was 11% in the experiment on COLO 205 [3], 10% in the experiment with THP-1 [4] and 11% in the experiment on A549 [7].
As for `CO[C@@]12[C@H](COC(N)=O)C3=C(C(=O)C(C)=C(N)C3=O)N1C[C@@H]1N[C@@H]12` [MITOMYCIN], the inhibition of growth at 10 µM with THP-1 [5] came out at 65%.
On to `COc1cc(C2CC(c3ccc(OCc4cn(Cc5ccc([N+](=O)[O-])cc5)nn4)cc3)=NN2C(C)=O)ccc1OCc1cn(Cc2ccc([N+](=O)[O-])cc2)nn1` (stereo not given), for which the inhibition of growth at 10 µM in the experiment with COLO 205 [2] came to 27%; with THP-1 [5], 0%; with A549 [6] it was 29%. For the same compound, the inhibition of growth at 100 µM in the experiment with COLO 205 [3] is 51%; in the experiment with THP-1 [4], 15%; in the experiment on A549 [7], 42%.
With `COc1cc(C2CC(c3ccc(Cl)cc3)=NN2C(C)=O)ccc1OCc1cn(Cc2ccc([N+](=O)[O-])cc2)nn1` (stereo not given), the figures for the inhibition of growth at 10 µM in the experiment on COLO 205 [2], in the experiment with THP-1 [5] and in the experiment with A549 [6] were 0%, 17% and 0%, respectively. Besides, the inhibition of growth at 100 µM in the experiment on COLO 205 [3] came out at 10%; in the experiment on THP-1 [4], 37%; in the experiment with A549 [7], 0%.
